Experimental data: PubChem BioAssay (NCI)
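Cultured in 96-well plates, cells were exposed to test compound for 48 hours across five concentrations. TGI is the concentration that stops growth completely.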

Experiments:
Assay in all cases: growth of human tumour cells (NCI), 48 h
MDA-MB-231 breast = test system: MDA-MB-231 breast
SNB-75 CNS = test system: SNB-75 CNS
TK-10 renal = test system: TK-10 renal
SNB-19 CNS = test system: SNB-19 CNS
IGROV1 ovarian = test system: IGROV1 ovarian
NCI-H226 lung = test system: NCI-H226 lung
CCRF-CEM leukemia = test system: CCRF-CEM leukemia
HCT-116 colon = test system: HCT-116 colon
NCI-H460 lung = test system: NCI-H460 lung
UO-31 renal = test system: UO-31 renal
MALME-3M melanoma = test system: MALME-3M melanoma
OVCAR-5 ovarian = test system: OVCAR-5 ovarian
OVCAR-8 ovarian = test system: OVCAR-8 ovarian
A498 renal = test system: A498 renal
K-562 leukemia = test system: K-562 leukemia
SW-620 colon = test system: SW-620 colon
BT-549 breast = test system: BT-549 breast
MCF7 breast = test system: MCF7 breast
OVCAR-4 ovarian = test system: OVCAR-4 ovarian
ACHN renal = test system: ACHN renal
HOP-92 NSCLC = test system: HOP-92 NSCLC
MDA-MB-435 = test system: MDA-MB-435
HCC-2998 colon = test system: HCC-2998 colon
HL-60(TB) leukemia = test system: HL-60(TB) leukemia
SF-295 CNS = test system: SF-295 CNS
MDA-N = test system: MDA-N
MOLT-4 leukemia = test system: MOLT-4 leukemia
HT29 colon = test system: HT29 colon
SN12C renal = test system: SN12C renal
UACC-257 melanoma = test system: UACC-257 melanoma
SF-268 CNS = test system: SF-268 CNS
HOP-62 NSCLC = test system: HOP-62 NSCLC
NCI/ADR-RES ovarian = test system: NCI/ADR-RES ovarian
COLO 205 colon = test system: COLO 205 colon
U251 CNS = test system: U251 CNS
T-47D breast = test system: T-47D breast
M14 melanoma = test system: M14 melanoma
HCT-15 colon = test system: HCT-15 colon
SK-MEL-5 melanoma = test system: SK-MEL-5 melanoma
OVCAR-3 ovarian = test system: OVCAR-3 ovarian
DU-145 prostate = test system: DU-145 prostate
UACC-62 melanoma = test system: UACC-62 melanoma
SK-OV-3 ovarian = test system: SK-OV-3 ovarian
PC-3 prostate = test system: PC-3 prostate
SK-MEL-28 melanoma = test system: SK-MEL-28 melanoma
SR leukemia = test system: SR leukemia
RPMI-8226 leukemia = test system: RPMI-8226 leukemia
NCI-H23 lung = test system: NCI-H23 lung
EKVX NSCLC = test system: EKVX NSCLC
A549 NSCLC = test system: A549 NSCLC
LOX IMVI melanoma = test system: LOX IMVI melanoma
786-0 renal = test system: 786-0 renal
NCI-H522 lung = test system: NCI-H522 lung
SK-MEL-2 melanoma = test system: SK-MEL-2 melanoma
CAKI-1 renal = test system: CAKI-1 renal
RXF 393 renal = test system: RXF 393 renal
KM12 colon = test system: KM12 colon
SF-539 CNS = test system: SF-539 CNS
HS 578T breast = test system: HS 578T breast

Measured: TGI

N=C(N)C1CN(CC=O)C(=O)NC1=O (centres undefined)
> 100 µM: MDA-MB-231 breast | SNB-75 CNS | TK-10 renal | SNB-19 CNS | IGROV1 ovarian | NCI-H226 lung | CCRF-CEM leukemia | HCT-116 colon | NCI-H460 lung | UO-31 renal | MALME-3M melanoma | OVCAR-5 ovarian | OVCAR-8 ovarian | A498 renal | K-562 leukemia | SW-620 colon | BT-549 breast | MCF7 breast | OVCAR-4 ovarian | ACHN renal | HOP-92 NSCLC | MDA-MB-435 | HCC-2998 colon | HL-60(TB) leukemia | SF-295 CNS | MDA-N | MOLT-4 leukemia | HT29 colon | SN12C renal | UACC-257 melanoma | SF-268 CNS | HOP-62 NSCLC | NCI/ADR-RES ovarian | COLO 205 colon | U251 CNS | T-47D breast | M14 melanoma | HCT-15 colon | SK-MEL-5 melanoma | OVCAR-3 ovarian | DU-145 prostate | UACC-62 melanoma | SK-OV-3 ovarian | PC-3 prostate | SK-MEL-28 melanoma | SR leukemia | RPMI-8226 leukemia | NCI-H23 lung | EKVX NSCLC | A549 NSCLC | LOX IMVI melanoma | 786-0 renal

O=C(NN1C(=O)c2ccccc2C1=O)c1ccccc1Nc1ccccc1C(=O)NN1C(=O)c2ccccc2C1=O
> 100 µM: MDA-MB-231 breast | NCI-H522 lung | SNB-75 CNS | TK-10 renal | SK-MEL-2 melanoma | SNB-19 CNS | IGROV1 ovarian | NCI-H226 lung | CCRF-CEM leukemia | HCT-116 colon | NCI-H460 lung | UO-31 renal | MALME-3M melanoma | OVCAR-5 ovarian | OVCAR-8 ovarian | K-562 leukemia | SW-620 colon | BT-549 breast | MCF7 breast | OVCAR-4 ovarian | ACHN renal | HOP-92 NSCLC | MDA-MB-435 | HCC-2998 colon | HL-60(TB) leukemia | SF-295 CNS | MDA-N | MOLT-4 leukemia | HT29 colon | SN12C renal | UACC-257 melanoma | CAKI-1 renal | SF-268 CNS | HOP-62 NSCLC | NCI/ADR-RES ovarian | COLO 205 colon | U251 CNS | RXF 393 renal | M14 melanoma | HCT-15 colon | SK-MEL-5 melanoma | OVCAR-3 ovarian | DU-145 prostate | UACC-62 melanoma | KM12 colon | PC-3 prostate | SK-MEL-28 melanoma | SR leukemia | RPMI-8226 leukemia | SF-539 CNS | NCI-H23 lung | EKVX NSCLC | LOX IMVI melanoma | 786-0 renal

C/C(=C/CNc1ncnc2c1ncn2CCC#N)CO
> 100 µM: MDA-MB-231 breast | NCI-H522 lung | SNB-75 CNS | TK-10 renal | SNB-19 CNS | IGROV1 ovarian | NCI-H226 lung | CCRF-CEM leukemia | HCT-116 colon | NCI-H460 lung | UO-31 renal | MALME-3M melanoma | OVCAR-5 ovarian | OVCAR-8 ovarian | A498 renal | K-562 leukemia | SW-620 colon | MCF7 breast | OVCAR-4 ovarian | ACHN renal | HOP-92 NSCLC | MDA-MB-435 | HCC-2998 colon | HL-60(TB) leukemia | SF-295 CNS | MDA-N | MOLT-4 leukemia | HT29 colon | SN12C renal | UACC-257 melanoma | CAKI-1 renal | SF-268 CNS | HOP-62 NSCLC | NCI/ADR-RES ovarian | COLO 205 colon | T-47D breast | RXF 393 renal | M14 melanoma | SK-MEL-5 melanoma | OVCAR-3 ovarian | DU-145 prostate | UACC-62 melanoma | SK-OV-3 ovarian | HS 578T breast | KM12 colon | PC-3 prostate | SK-MEL-28 melanoma | SR leukemia | RPMI-8226 leukemia | SF-539 CNS | NCI-H23 lung | EKVX NSCLC | A549 NSCLC | LOX IMVI melanoma | 786-0 renal

COc1ccc(-c2cc(-c3ccco3)c(C#N)c(=S)n2C2OC(CO)C(O)C(O)C2O)cc1 (centres undefined)
> 100 µM: MDA-MB-231 breast | NCI-H522 lung | SNB-75 CNS | TK-10 renal | SK-MEL-2 melanoma | SNB-19 CNS | IGROV1 ovarian | NCI-H226 lung | CCRF-CEM leukemia | HCT-116 colon | NCI-H460 lung | UO-31 renal | MALME-3M melanoma | OVCAR-5 ovarian | OVCAR-8 ovarian | A498 renal | K-562 leukemia | SW-620 colon | BT-549 breast | MCF7 breast | OVCAR-4 ovarian | ACHN renal | MDA-MB-435 | HCC-2998 colon | SF-295 CNS | MDA-N | MOLT-4 leukemia | HT29 colon | SN12C renal | UACC-257 melanoma | CAKI-1 renal | SF-268 CNS | HOP-62 NSCLC | NCI/ADR-RES ovarian | COLO 205 colon | U251 CNS | RXF 393 renal | M14 melanoma | HCT-15 colon | SK-MEL-5 melanoma | OVCAR-3 ovarian | SK-OV-3 ovarian | HS 578T breast | KM12 colon | PC-3 prostate | SK-MEL-28 melanoma | RPMI-8226 leukemia | SF-539 CNS | NCI-H23 lung | EKVX NSCLC | A549 NSCLC | LOX IMVI melanoma | 786-0 renal
